These results are taken from US8003631B2, “Composition and method for the treatment of tauopathies” (Tautatis, Inc., priority 2004, dated 2011).

For data set [1], the system named is PHF-type tau hyperphosphorylation. The data set can be described thus: Titration of tau hyperphosphorylation inhibitors in okadaic acid-stimulated rat hippocampal brain slice model. The class given is cell-based. Particulars: okadaic acid provocation of PHF-markers. The text has this: Authentic PHF-type phosphorylation events virtually indistinguishable by all known molecular markers from what is seen in PHF-tau from human Alzheimer's disease brains is rapidly provoked in such brain slices by application of the phosphatase inhibitor okadaic acid (OA) [Gong et al., Brain Res. Brain Res. Protoc., 6, 134-140 (2001); WO 01/57535; WO 00/01699].
In okadaic acid-treated brain slices, most of the above pathological markers are modeled. For the detection of active inhibitor compounds, freshly prepared metabolically-active isolated slices, kept under constant oxygenation in a physiological buffer (artificial cerebrospinal fluid or Krebs-Ringer solution), are preincubated with a range of concentration of the compounds of general formula 1. The slices are then extracted with buffers stopping both kinase as well as phosphatase activities, and soluble supernatants of such tissue homogenates are then separated by SDS-PAGE and subjected to Western-blotting. […] The intensity of the signals can then be normalized to the amount of total tau in the sample by probing a sister blot with a phosphorylation insensitive tau antibody, followed by forming the intensity ratio of the respective phosphoepitope over total tau immunoreactivity which represent an accurate quantitative measure of the degree of phosphorylation defining a particular epitope. […]

The conditions of data set [2]: cited from earlier work.

Consider `CCSCc1ccc2c(c1)c1c3c(c4c5cc(CSCC)ccc5n5c4c1n2[C@H]1C[C@](O)(C(=O)OC)[C@]5(C)O1)CNC3=O` [CEP-1347], for which the “activity in the brain slice hyperphosphorylation model” value in data set [1] was “inactive”.

With `COC(=O)[C@@]1(O)C[C@H]2O[C@]1(C)n1c3ccccc3c3c4c(c5c6ccccc6n2c5c31)C(=O)NC4` [K252a], in data set [2] (concentration in brain over concentration in plasma at a given time point), the brain/plasma ratio entry is listed as “below 1”. The maximal oral bioavailability in data set [2] (rats, oral) is listed as 13%.

In the case of `CN[C@@H]1C[C@H]2O[C@@](C)([C@@H]1OC)n1c3ccccc3c3c4c(c5c6ccccc6n2c5c31)C(=O)NC4` [staurosporine], in data set [1], the “activity in the brain slice hyperphosphorylation model” value is “inactive”.
